Drawing on patent US10604487B2, “Pyridinol derivative or pharmaceutically acceptable salt thereof, and pharmaceutical composition containing same as active ingredient” (Research Cooperation Foundation of Yeungnam University, priority 2016, dated 2020), this text covers viability, IC50 and inhibition for 28 molecules.

Read-outs that look alike come from different tables or passages of the source. A value given as a limit tells only on which side of the number the result lay.

Series [1] in a line: Cytotoxicity test (MTT), U937. Particulars: human, U937, 48 h; for viability at 48 h, 0.01 µM / viability at 48 h, 0.1 µM / viability at 48 h, 1 µM / viability at 48 h, 10 µM / viability at 48 h, 100 µM: U937 cells (monocytic blood cancer-derived cell line), read-out: Cell viability (% of control); for IC50 at 48 h: U937 cells. The format is cell-based. The protocol: (§1) The human colorectal cancer cell line HT-29 and the monocytic blood cancer-derived cell line U937 were cultured in a RPMI 1640 medium containing 10% FBS and 1% penicillin/streptomycin (PS) at 37° C. under a condition of 5% CO2, and when the cells used herein were grown to 80% or more, they were subcultured at a ratio of 1:3.
(§2) Each type of cells were cultured in a 96 well plate at a concentration of 1×10^5 cells/cm2, treated with a test compound by concentration in a medium only containing 1% FBS and 1% PS at 37° C. under a condition of 5% CO2 for 48 hours and reacted with 5 mg/mL of a 3-[4,5-dimethylthiazol-2-yl]-2,5-diphenyltetrazolium bromide (MTT) reagent for 4 hours, and then the medium was completely removed, the cells were treated with DMSO, formazan crystals were dissolved for 30 minutes, and then absorbance was measured at 540 nm.

Series [2] can be described thus: Cytotoxicity test (MTT), HT-29. The settings on record: human, HT-29, 48 h; for viability at 48 h, 0.01 µM / viability at 48 h, 0.1 µM / viability at 48 h, 1 µM / viability at 48 h, 10 µM / viability at 48 h, 100 µM: HT-29 cells (colorectal cancer cell line), read-out: Cell viability (% of control); for IC50 at 48 h: HT-29 cells, read-out: IC50 (μM), cytotoxicity. The format is cell-based. The protocol: as §1, §2

Series [3] relates to TNF-α-induced adhesion of monocytes to intestinal epithelial cells. Description: Inhibitory activity against TNF-α-induced adhesion of monocytes (U937) to intestinal epithelial cells (HT-29). Type of series: cell-based, human. The settings on record: Homo sapiens. The protocol: HT-29 human colorectal cancer-derived epithelial cells and U937 human-derived monocytic cells were cultured in an RPMI 1640 medium containing 10% FBS and 1% penicillin/streptomycin (PS) at 37° C. under a condition of 5% CO2, and when the cells were grown to 80% or more in a culture flask, they were subcultured in a ratio of 1:3 to be used in this test. The HT-29 cells were cultured in a 24-well plate at a concentration of 2×10^5 cells/cm2, and then the medium only containing 1% FBS and 1% PS was pretreated with a test drug for 1 hour. Afterward, BCECF-loaded U937 cells by being treated with 10 μg/mL of BCECF-AM at 37° C. for 30 minutes and 10 ng/mL of TNF-α reacted with the HT-29 cells previously treated with the test drug at 37° C. for 3 hours. After the reaction, the medium was removed, and then the cells were washed with PBS twice to remove U937 cells that were not adhered. In a subsequent step, for cell lysis, 0.1% Triton X-100 (0.1 M Tris) was treated to allow a reaction at room temperature for 30 minutes, and then fluorescence was measured using a Fluostar optima microplate reader (BMG LABTECH, Germany) to quantify the cells (Carvalho et al., 1996; Thapa et al., 2008).

[4] abbreviates: 1 μM test drug, HT-29/U937 adhesion, 10 ng/mL TNF-α, read-out: Inhibitory activity (%).

Regarding `O=c1[nH]cc(F)c(=O)[nH]1` [5-Fluorouracil, reference compound], in series [1], the viability at 48 h, 0.01 µM is 93 ± 2.7%; the viability at 48 h, 0.1 µM amounted to 89.8 ± 2.7%; the viability at 48 h, 1 µM was 75.7 ± 0.6%; the viability at 48 h, 10 µM was 71.3 ± 1.7%. Further, in series [1], the viability at 48 h, 100 µM was found to be 59.7 ± 0.2% and the IC50 at 48 h is greater than 100 µM. In series [2], the viability at 48 h, 0.01 µM worked out at 85.5 ± 3.9%; the viability at 48 h, 0.1 µM is 77.6 ± 4.6%; the viability at 48 h, 1 µM was found to be 61.9 ± 4.2%; the viability at 48 h, 10 µM is 48.3 ± 2%. In series [2], the viability at 48 h, 100 µM was found to be 36 ± 2.5% and the IC50 at 48 h turned out to be 7.6 µM.

Regarding `Nc1ccc(O)c(C(=O)O)c1` [Compound 5-ASA, 5-aminosalicylic acid, reference compound], the inhibition at 1 µM in series [3] (setting [4]) came to 3.8%; in series [3] (1 μM, Table 8, read-out: 1 μM concentration inhibitory activity), 3.8%. The IC50 in series [3] (HT-29/U937 adhesion, TNF-α-induced, read-out: IC50 (adhesion inhibition)) turned out to be 18100 µM.

In the case of `Cc1nc(NC(=O)Nc2ccc(F)cc2)c(C)c(C)c1O` [Compound 16-7, 1-(4-Fluorophenyl)-3-(5-hydroxy-3,4,6-trimethylpyridin-2-yl)urea], the inhibition at 1 µM in series [3] (setting [4]) was found to be 14.6%.

As to `Cc1nc(NC(=O)Nc2ccc(Br)cc2)c(C)c(C)c1O` [Compound 16-8, 1-(4-Bromophenyl)-3-(5-hydroxy-3,4,6-trimethylpyridin-2-yl)urea], the inhibition at 1 µM in series [3] (setting [4]) was 17.2%.

For `Cc1ccc(NC(=O)Nc2nc(C)c(O)c(C)c2C)cc1` [Compound 16-9, 1-(5-hydroxy-3,4,6-trimethylpyridin-2-yl)-3-(p-tolyl)urea], the inhibition at 1 µM in series [3] (setting [4]) amounted to 20.1%.

Consider `COc1ccc(NC(=O)Nc2nc(C)c(O)c(C)c2C)cc1` [Compound 16-10, 1-(5-Hydroxy-3,4,6-trimethylpyridin-2-yl)-3-(4-methoxyphenyl)urea], for which the inhibition at 1 µM in series [3] (setting [4]) was determined as 12.6%.

As to `Cc1nc(NC(=O)Nc2ccc(C(F)(F)F)cc2)c(C)c(C)c1O` [Compound 16-11, 1-(5-hydroxy-3,4,6-trimethylpyridin-2-yl)-3-(4-(trifluoromethyl)phenyl)urea], the inhibition at 1 µM in series [3] (setting [4]) was found to be 52.7%.

`Cc1nc(NC(=O)Nc2ccc(OC(F)(F)F)cc2)c(C)c(C)c1O` [Compound 16-13, 1-(5-hydroxy-3,4,6-trimethylpyridin-2-yl)-3-(4-(trifluoromethoxy)phenyl)urea]: the inhibition at 1 µM in series [3] (setting [4]) was determined as 12.6%.

On to `Cc1nc(NC(=O)NCc2ccccc2)c(C)c(C)c1O` [Compound 16-14, 1-benzyl-3-(5-hydroxy-3,4,6-trimethylpyridin-2-yl)urea], for which the inhibition at 1 µM in series [3] (setting [4]) is 4.9%.

Regarding `Cc1nc(NC(=O)Nc2ccc(C(C)C)cc2)c(C)c(C)c1O` [Compound 16-15, 1-(5-hydroxy-3,4,6-trimethylpyridin-2-yl)-3-(4-isopropylphenyl)urea], the inhibition at 1 µM in series [3] (setting [4]) was 11.5%.

Turning to `Cc1nc(NC(=O)NC(=O)c2ccccc2)c(C)c(C)c1O` [Compound 16-16, N-((5-hydroxy-3,4,6-trimethylpyridin-2-yl)carbamoyl)benzamide], the inhibition at 1 µM in series [3] (setting [4]) was found to be 34.2%.

Take `Cc1nc(NC(=S)Nc2ccc(Cl)c(Cl)c2)c(C)c(C)c1OCc1ccccc1` [Compound 17-8a, 1-(5-benzyloxy-3,4,6-trimethylpyridin-2-yl)-3-(3,4-dichlorophenyl)thiourea]: the inhibition at 1 µM in series [3] (setting [4]) came out at 17.3%.

`COc1c(C)nc(NC(=S)Nc2ccc(Cl)c(Cl)c2)c(C)c1C` [Compound 17-8b, 1-(3,4-dichlorophenyl)-3-(5-methoxy-3,4,6-trimethylpyridin-2-yl)thiourea]: the inhibition at 1 µM in series [3] (setting [4]) was found to be 39.5%.

With `Cc1nc(NC(=S)Nc2ccc(Cl)c(Cl)c2)c(C)c(C)c1O[Si](c1ccccc1)(c1ccccc1)C(C)(C)C` [Compound 17-8c, 1-(5-((tert-butyldiphenylsilyl)oxy)-3,4,6-trimethylpyridin-2-yl)-3-(3,4-dichlorophenyl)thiourea], the inhibition at 1 µM in series [3] (setting [4]) turned out to be 18.8%.

For the molecule `Cc1nc(NC(=S)Nc2cccc(C(F)(F)F)c2)c(C)c(C)c1OCc1ccccc1` [Compound 17-9a, 1-(5-benzyloxy-3,4,6-trimethylpyridin-2-yl)-3-(3-(trifluoromethyl)phenyl)thiourea], the inhibition at 1 µM in series [3] (setting [4]) was 19.6%.

Take `COc1c(C)nc(NC(=S)Nc2cccc(C(F)(F)F)c2)c(C)c1C` [Compound 17-9b, 1-(5-Methoxy-3,4,6-trimethylpyridin-2-yl)-3-(3-(trifluoromethyl)phenyl)thiourea]: the inhibition at 1 µM in series [3] (setting [4]) worked out at 39%.

For `Cc1nc(NC(=S)Nc2cccc(C(F)(F)F)c2)c(C)c(C)c1O[Si](c1ccccc1)(c1ccccc1)C(C)(C)C` [Compound 17-9c, 1-(5-((tert-Butyldiphenylsilyl)oxy)-3,4,6-trimethylpyridin-2-yl)-3-(3-(trifluoromethyl)phenyl)thiourea], in series [3] (setting [4]), the inhibition at 1 µM stood at 25.9%.

Consider `COc1ccc(NC(=S)Nc2nc(C)c(O[Si](c3ccccc3)(c3ccccc3)C(C)(C)C)c(C)c2C)cc1` [Compound 17-12c, 1-(5-((tert-Butyldiphenylsilyl)oxy)-3,4,6-trimethylpyridin-2-yl)-3-(4-methoxyphenyl)thiourea], for which, in series [3] (setting [4]), the inhibition at 1 µM was found to be 16%.

For `Cc1ccc(NC(=S)Nc2nc(C)c(O)c(C)c2C)cc1` [Compound 18-5, 1-(5-hydroxy-3,4,6-trimethylpyridin-2-yl)-3-(p-tolyl)thiourea], in series [3] (setting [4]), the inhibition at 1 µM came to 19.2%.

As for `Cc1nc(NC(=S)Nc2ccc(Br)cc2)c(C)c(C)c1O` [Compound 18-7, 1-(4-bromophenyl)-3-(5-hydroxy-3,4,6-trimethylpyridin-2-yl)thiourea], the inhibition at 1 µM in series [3] (setting [4]) was determined as 27.8%.

Take `COc1ccc(NC(=S)Nc2nc(C)c(O)c(C)c2C)cc1` [Compound 18-12, 1-(5-Hydroxy-3,4,6-trimethylpyridin-2-yl)-3-(4-methoxyphenyl)thiourea]: the inhibition at 1 µM in series [3] (setting [4]) is 13.3%.

As to `Cc1nc(O)c(C)c(C)c1O` [Compound 28-1, 3,4,6-Trimethylpyridine-2,5-diol], the inhibition at 1 µM in series [3] (setting [4]) is no less than 50%.

Consider `CCCCOc1nc(C)c(O)c(C)c1C` [Compound 28-2, 6-butoxy-2,4,5-trimethylpyridin-3-ol], for which the inhibition at 1 µM in series [3] (setting [4]) was 48.2%.

In the case of `CCCCCCCCOc1nc(C)c(O)c(C)c1C` [Compound 28-3, 2,4,5-Trimethyl-6-(octyloxy)pyridin-3-ol], the inhibition at 1 µM in series [3] (setting [4]) is 30.4%.

Turning to `Cc1nc(OCCC(C)C)c(C)c(C)c1O` [Compound 28-4, 6-isopentyloxy-2,4,5-trimethylpyridin-3-ol], in series [3] (setting [4]), the inhibition at 1 µM is 33.2%.

In the case of `Cc1nc(OC2CCCC2)c(C)c(C)c1O` [Compound 28-5, 6-cyclopentyloxy-2,4,5-trimethylpyridin-3-ol], the inhibition at 1 µM in series [3] (setting [4]) was 28.8%.

Take `Cc1nc(OCCCc2ccccc2)c(C)c(C)c1O` [Compound 28-6, 2,4,5-Trimethyl-6-(3-phenylpropoxy)pyridin-3-ol]: the inhibition at 1 µM in series [3] (setting [4]) was no less than 50%.

With `COc1cccc2c1C(=O)c1c(O)c3c(c(O)c1C2=O)C[C@@](O)(C(=O)CO)C[C@@H]3O[C@H]1C[C@H](N)[C@H](O)[C@H](C)O1` [Doxorubicin, reference compound], in series [1], the viability at 48 h, 0.01 µM was 93.6 ± 1.8%; the viability at 48 h, 0.1 µM is 91.4 ± 3.3%; the viability at 48 h, 1 µM came to 42.2 ± 1.3%; the viability at 48 h, 10 µM was 38.3 ± 0.6%. Also, in series [1], the viability at 48 h, 100 µM worked out at 33.2 ± 1.3% and the IC50 at 48 h stood at 0.6 µM. In series [2], the viability at 48 h, 0.01 µM was found to be 69.9 ± 1.1%; the viability at 48 h, 0.1 µM is 66.9 ± 3.3%; the viability at 48 h, 1 µM was determined as 58.2 ± 6.4%; the viability at 48 h, 10 µM turned out to be 53.2 ± 5.1%. Also, in series [2], the viability at 48 h, 100 µM was 35.7 ± 2% and the IC50 at 48 h was found to be 12.9 µM.
